Laboratory results: ChEMBL document CHEMBL1201862, “PubChem BioAssay data set” (2004)
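Test compounds were applied to cells in 96-well plates for 48 hours at 5 doses. Here, GI50 denotes the concentration required for 50% inhibition of growth.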 The source made the active and inactive calls. Cut-off read from the data, not from the text of the source: active = GI50 up to about 1.1 µM and inactive = higher.

Assays:
Experiment in all cases: inhibition of tumour cell growth, NCI panel, 48 h
NCI/ADR-RES = test system: NCI/ADR-RES
DU-145 = test system: DU-145
UACC-257 = test system: UACC-257
HCT-116 = test system: HCT-116
MDA-MB-231 = test system: MDA-MB-231
MDA-MB-435 = test system: MDA-MB-435
UO-31 = test system: UO-31
LOX IMVI = test system: LOX IMVI
ACHN = test system: ACHN
HCC 2998 = test system: HCC 2998
COLO 205 = test system: COLO 205
SR = test system: SR
MDA-N = test system: MDA-N
T47D = test system: T47D
IGROV-1 = test system: IGROV-1
CAKI-1 = test system: CAKI-1
SK-MEL-2 = test system: SK-MEL-2
SF-539 = test system: SF-539
OVCAR-5 = test system: OVCAR-5
NCI-H522 = test system: NCI-H522

Measured: GI50

CCOC(O)C(F)(F)F (configuration not stated)
inactive: NCI/ADR-RES > 100 µM | DU-145 > 100 µM | UACC-257 > 100 µM | HCT-116 > 100 µM | MDA-MB-231 > 100 µM | MDA-MB-435 > 100 µM | UO-31 > 100 µM | LOX IMVI > 100 µM | ACHN > 100 µM | HCC 2998 > 100 µM | COLO 205 > 100 µM | SR > 100 µM | MDA-N > 100 µM | T47D > 100 µM

Cn1c(=O)n2n(c1=O)C(C)(C13CC4CC(CC(C4)C1)C3)C13CC4CC(CC1C4)CC23 (configuration not stated)
inactive: NCI/ADR-RES > 100 µM | IGROV-1 > 100 µM | DU-145 > 100 µM | UACC-257 > 100 µM | CAKI-1 > 100 µM | MDA-MB-231 > 100 µM | MDA-MB-435 > 100 µM | UO-31 > 100 µM | ACHN > 100 µM | SK-MEL-2 > 100 µM | COLO 205 > 100 µM | SF-539 > 100 µM | OVCAR-5 > 100 µM | SR > 100 µM | MDA-N > 100 µM | T47D > 100 µM

CCOC(=O)c1csc(NC(=O)CN2CCCC2)n1
inactive: NCI/ADR-RES > 100 µM | IGROV-1 > 100 µM | DU-145 > 100 µM | UACC-257 > 100 µM | CAKI-1 > 100 µM | MDA-MB-231 > 100 µM | MDA-MB-435 > 100 µM | UO-31 > 100 µM | LOX IMVI > 100 µM | ACHN > 100 µM | SK-MEL-2 > 100 µM | HCC 2998 > 100 µM | COLO 205 > 100 µM | SF-539 > 100 µM | OVCAR-5 > 100 µM | SR > 100 µM | MDA-N > 100 µM | T47D > 100 µM

CCOC(=O)c1csc(NC(=O)CCN2CCN(C)CC2)n1
inactive: NCI/ADR-RES > 100 µM | DU-145 > 100 µM | UACC-257 > 100 µM | CAKI-1 64.1 µM | MDA-MB-231 > 100 µM | MDA-MB-435 > 100 µM | UO-31 > 100 µM | LOX IMVI > 100 µM | ACHN > 100 µM | SK-MEL-2 > 100 µM | HCC 2998 > 100 µM | COLO 205 > 100 µM | SF-539 > 100 µM | OVCAR-5 > 100 µM | SR 74.3 µM | MDA-N > 100 µM | T47D > 100 µM

COCCN(C(=O)c1ccccc1)C1CCC(=O)c2[nH]c3ccccc3c21 (configuration not stated)
inactive: NCI/ADR-RES 19.3 µM | IGROV-1 3.65 µM | DU-145 14.7 µM | UACC-257 > 46.9 µM | HCT-116 13.1 µM | CAKI-1 4.58 µM | MDA-MB-231 4.23 µM | MDA-MB-435 6.87 µM | UO-31 9.71 µM | LOX IMVI > 21.1 µM | ACHN 16.7 µM | SK-MEL-2 5.38 µM | NCI-H522 2.59 µM | HCC 2998 17.1 µM | COLO 205 15.5 µM | SF-539 7.1 µM | OVCAR-5 16.9 µM | SR 3.2 µM | T47D 16.2 µM

COc1ccc(C(=O)/C=C/c2ccc(OCCCOc3ccc(/C=C/C(=O)c4ccc(OC)cc4)cc3)cc2)cc1
inactive: NCI/ADR-RES > 100 µM | IGROV-1 > 100 µM | DU-145 > 100 µM | UACC-257 > 100 µM | HCT-116 24.7 µM | CAKI-1 > 100 µM | MDA-MB-231 > 100 µM | MDA-MB-435 > 100 µM | UO-31 > 100 µM | ACHN > 100 µM | SK-MEL-2 > 100 µM | HCC 2998 > 100 µM | COLO 205 > 100 µM | SF-539 28.8 µM | OVCAR-5 > 100 µM | SR > 100 µM | MDA-N > 100 µM | T47D > 100 µM

N#Cc1c(-c2ccccc2)c(CN2CCCCC2)c(=O)n2c1[nH]c1ccccc12
inactive: NCI/ADR-RES 43.2 µM | IGROV-1 19.5 µM | UACC-257 42 µM | HCT-116 16.6 µM | CAKI-1 26.3 µM | MDA-MB-231 43.5 µM | MDA-MB-435 41.4 µM | UO-31 26.7 µM | LOX IMVI 20.7 µM | ACHN 33.7 µM | SK-MEL-2 37.3 µM | NCI-H522 24.3 µM | HCC 2998 53.8 µM | COLO 205 25.6 µM | SF-539 38.1 µM | OVCAR-5 34.9 µM | MDA-N 27.5 µM | T47D 40.9 µM

CN(C)c1cccc2c1C(=O)C=CC21CCc2ccc(N(C)C)c3c(N(C)C)ccc1c23 (configuration not stated)
inactive: NCI/ADR-RES 56.8 µM | IGROV-1 13.4 µM | DU-145 5.26 µM | UACC-257 11.9 µM | HCT-116 10.9 µM | CAKI-1 21.4 µM | MDA-MB-231 13.6 µM | MDA-MB-435 10.3 µM | UO-31 11.9 µM | LOX IMVI 15.1 µM | ACHN 13.4 µM | COLO 205 15.1 µM | SF-539 16.3 µM | OVCAR-5 19.1 µM | SR 12 µM | MDA-N 11.2 µM | T47D 66.4 µM

C[N+](C)(C)/C=N\c1cccc2c1CCCC2
inactive: NCI/ADR-RES > 100 µM | IGROV-1 75.3 µM | DU-145 > 100 µM | UACC-257 45.1 µM | HCT-116 > 100 µM | CAKI-1 > 100 µM | MDA-MB-231 > 100 µM | MDA-MB-435 90.8 µM | UO-31 > 100 µM | LOX IMVI 55.3 µM | ACHN > 100 µM | SK-MEL-2 > 100 µM | COLO 205 43.4 µM | SF-539 > 100 µM | OVCAR-5 > 100 µM | SR 16 µM | MDA-N > 100 µM | T47D 69.3 µM

Cc1c(Cc2ccccc2)n(COCCCO)c(=O)[nH]c1=O
inactive: NCI/ADR-RES > 100 µM | IGROV-1 > 100 µM | DU-145 > 100 µM | UACC-257 > 100 µM | HCT-116 > 100 µM | CAKI-1 > 100 µM | MDA-MB-231 > 100 µM | MDA-MB-435 > 100 µM | UO-31 > 100 µM | LOX IMVI > 100 µM | ACHN > 100 µM | SK-MEL-2 > 100 µM | NCI-H522 > 100 µM | HCC 2998 > 100 µM | COLO 205 > 100 µM | SF-539 > 100 µM | OVCAR-5 > 100 µM | MDA-N > 100 µM | T47D > 100 µM

CC(C)=CCC/C(C)=C/CC/C(C)=C/CSc1ccc(Cl)cc1C(=O)O
inactive: NCI/ADR-RES > 10 µM | IGROV-1 17.5 µM | DU-145 23.9 µM | UACC-257 27.8 µM | HCT-116 17.8 µM | CAKI-1 25.1 µM | MDA-MB-231 27 µM | MDA-MB-435 20.2 µM | UO-31 17.5 µM | LOX IMVI 18.1 µM | ACHN 18.5 µM | SK-MEL-2 15 µM | HCC 2998 20.5 µM | COLO 205 22.4 µM | SF-539 18.9 µM | OVCAR-5 18.9 µM | MDA-N 29.4 µM | T47D > 10 µM
